# Values quoted from earlier work as cited in US20220087839A1, “Arterial Drug Eluting Device to Treat Diabetes With Targeted Delivery of Medication” (Becton, Dickinson and Company, priority 2020, published 2022).
# Key:
# glucagon [1] = conditions: intravenous infusion of 500 micrograms per hour, Type 1 diabetics
# [2] = in vivo
# [3] = system: beta and alpha cells of the pancreas
# glucagon [4] = conditions: intravenous infusion of 25 micrograms per hour, Type 1 diabetic
# human alpha-cells = conditions: in vitro
compound,measurement,setting,value
somatostatin,suppression of glucagon spikes,glucagon [1],suppressed glucagon spikes
same,half life,[2],3 min
same,effect on insulin and glucagon release,[3],inhibit both insulin and glucagon release
CC[C@H](C)[C@H](NC(=O)[C@@H]1CCCN1C(=O)CNC(=O)[C@H](Cc1ccccc1)NC(=O)[C@H](CC(N)=O)NC(=O)[C@H](CC(N)=O)NC(=O)[C@H](CO)NC(=O)[C@H](CO)NC(=O)[C@H](Cc1c[nH]cn1)NC(=O)[C@@H](NC(=O)[C@H](CC(C)C)NC(=O)[C@H](Cc1ccccc1)NC(=O)[C@H](CC(N)=O)NC(=O)[C@H](C)NC(=O)[C@H](CC(C)C)NC(=O)[C@H](CCCNC(=N)N)NC(=O)[C@H](CCC(N)=O)NC(=O)[C@@H](NC(=O)[C@H](C)NC(=O)[C@@H]1CSSC[C@H](NC(=O)[C@@H](N)CCCCN)C(=O)N[C@@H](CC(N)=O)C(=O)N[C@@H]([C@@H](C)O)C(=O)N[C@@H](C)C(=O)N[C@@H]([C@@H](C)O)C(=O)N1)[C@@H](C)O)C(C)C)C(=O)N[C@@H](CC(C)C)C(=O)N1CCC[C@H]1C(=O)N1CCC[C@H]1C(=O)N[C@H](C(=O)N[C@@H](CC(N)=O)C(=O)N[C@H](C(=O)NCC(=O)N[C@@H](CO)C(=O)N[C@@H](CC(N)=O)C(=O)N[C@H](C(=O)N[C@@H](Cc1ccc(O)cc1)C(N)=O)[C@@H](C)O)C(C)C)[C@@H](C)O [Pramlintide],suppression of glucagon spike from a standardized meal,glucagon [4],could suppress a glucagon spike from a standardized meal
leptin,concentration that could suppress functional response to glucose,human alpha-cells,0.625 nmol/L
